Experimental data from paper PMC10382259, “Efficacy and Safety of Elamipretide in Individuals With Primary Mitochondrial Myopathy” (Neurology, 2023).
“Also recorded” adds a separate entry of the source.

Tests used:
[1] = cited from earlier work
Description: Elamipretide is an investigational mitochondrial-targeting agent in development for treating patients with a variety of mitochondrial diseases.[10][-][13] Elamipretide is a water-soluble, aromatic, cationic, mitochondria-targeting tetrapeptide that readily penetrates and transiently localizes to the inner mitochondrial membrane where it associates with cardiolipin to improve membrane stability and restore supercomplex formation, thereby enhancing adenosine triphosphate synthesis in several organs including the heart, kidney, neurons, and skeletal muscle, and reduce reactive oxygen species (ROS ...

[2] = system: participants with primary mitochondrial myopathy (PMM); assay: MMPOWER-3 overall outcome on primary and secondary efficacy endpoints; type: in vivo, human; details: 40 mg/d SC, 24 weeks, vs placebo
Description: Coprimary endpoints evaluated the effect of elamipretide for 24 weeks including the distance walked (in meters) on the 6MWT and the total fatigue score on the Primary Mitochondrial Myopathy Symptom Assessment (PMMSA), previously described in detail.[31] The full PMMSA assesses the severity of 10 of the most common symptoms of PMM using the following 4-point scale (not at all[1] to severe; described later). PMMSA total fatigue score (TFS) focuses on myopathic symptoms most commonly associated with PMM (severity of tiredness and muscle weakness at rest and during activities, as described by participants). […]
Other secondary endpoints included the patient global impression (PGI) and clinician global impression (CGI) of PMM symptoms. PGI and CGI assess patient and clinician overall assessment of the severity of patients' symptoms related to PMM on a 5-point scaled question scored 0 to 4 (0 = none, 1 = mild, 2 = moderate, 3 = severe, and 4 = very Severe) and changes to their symptoms on a 7-point scale scored −3 to 3 (−3 = very much worse, −2 = moderately worse, −1 = a little worse, 0 = no change, 1 = a little better, 2 = moderately better, and 3 = very much better).
Primary and secondary efficacy outcomes were assessed as the change from baseline to each on-treatment time point with the primary time point being end of treatment (week 24). […]

[3] = Population pharmacokinetic and exposure-response analysis (NONMEM), MMPOWER-3; type: in vivo, human
Experimental: The PK population included 106 participants randomized and treated with elamipretide, with at least 1 PK sample taken during their participation. PK modeling for elamipretide and its metabolites, M1 and M2, were performed using NONMEM computer software. Covariates, such as age, genotype, weight, height, lean body mass, body mass index, liver function tests, serum creatinine, and renal function (as described by estimated glomerular filtration rate [eGFR]) were analyzed. The exposure-response analysis examined response based on the 6MWT as a function of steady-state exposure to elamipretide and its metabolites.

[4] = system: participants with primary mitochondrial myopathy (PMM); assay: 6-minute walk test (6MWT), MMPOWER-3 phase 3 trial; type: in vivo, human
Experimental: (§1) MMPOWER-3 was a 24-week , randomized, double-blind, parallel-group, placebo-controlled clinical trial for adults with PMM conducted at 27 clinical research centers in 7 countries (Canada, Denmark, England, Germany, Hungary, Italy, and the United States).
(§2) After screening (7–28 days), eligible participants were randomized in a 1:1 ratio to receive either 24-weeks of once-daily SC dosing of 40 mg of elamipretide or placebo. Study drug or placebo was self-administered subcutaneously by trained participants or their caregivers, at rotating sites around 4 quadrants of the abdomen or the thighs. Treatment began at the baseline visit with assessments at weeks 4, 12, and 24.
(§3) Coprimary endpoints evaluated the effect of elamipretide for 24 weeks including the distance walked (in meters) on the 6MWT and the total fatigue score on the Primary Mitochondrial Myopathy Symptom Assessment (PMMSA), previously described in detail.[31] The full PMMSA assesses the severity of 10 of the most common symptoms of PMM using the following 4-point scale (not at all[1] to severe; described later). PMMSA total fatigue score (TFS) focuses on myopathic symptoms most commonly associated with PMM (severity of tiredness and muscle weakness at rest and during activities, as described by participants).
(§4) Efficacy was assessed in the intention-to-treat (ITT) population, defined as all participants who received at least 1 dose of investigational medication, and the per-protocol (PP) population, which included all ITT participants without defined protocol violations/deviations identified per blinded data review before database lock. These protocol violations/deviations included not meeting inclusion/exclusion criteria or having a selected major protocol deviation deemed to potentially affect efficacy findings; not completing the study; not receiving investigational treatment within 2 days before the week 24 visit; having <80% compliance to investigational product; and not completing the study. Safety was assessed in the safety population, defined as all participants who received at least 1 dose of investigational medication.
(§5) Primary and secondary efficacy outcomes were assessed as the change from baseline to each on-treatment time point with the primary time point being end of treatment (week 24). Analyses of continuous endpoints were conducted using a mixed-model repeated measures approach, with fixed effects for treatment, visit, the treatment-by-visit interaction, and participant as a random effect. The baseline value and a baseline-by-visit interaction for the endpoint were included as covariates. A family-wise alpha level of 0.05 was maintained for the primary endpoints, using Hochberg procedure at the primary time point of 24 weeks. […] If not, the endpoint with the smaller p value of the 2 was considered statistically significant if the p value was ≤0.025 (2-sided ).
(§6) Given the extensive genetic heterogeneity of the study population, an exploratory analysis of genetic subgroups by genomic alteration (mtDNA and nDNA) was performed using the same methods as described for the primary efficacy endpoints earlier (ITT population using similar mixed-model repeated measure [MMRM] models).
Because of a potential data entry error, which was later identified in post hoc data analysis, 3 participants were misclassified in the clinical study report as having a pathogenic mtDNA variant. […] Accordingly, these participants were moved from the mtDNA group into the nDNA cohort for the included genetic alteration analyses. 6MWT for 1 participant at week 24 was deemed unusable because the participant inadvertently received walking assistance and was therefore not included in the 6MWT analyses. Study protocol and statistical analysis plan were published on ClinicalTrials.gov updated on January 24th 2022 (NCT03323749).[32]

[5] = system: participants with primary mitochondrial myopathy (PMM); assay: Safety and tolerability (adverse events), MMPOWER-3; type: in vivo, human
Experimental: Safety and tolerability of elamipretide at a dose of 40 mg/d SC were assessed through recording of adverse events (AEs), ascertained through self-report, vital signs, physical examination, ECGs, and clinical laboratory evaluations. Adverse events were assessed for severity and relationship to study medication throughout the 24-week study. Safety measures were assessed during screening, baseline and weeks 4, 12, and 24.
as §4

[6] = system: participants with primary mitochondrial myopathy (PMM); assay: Primary Mitochondrial Myopathy Symptom Assessment (PMMSA) total fatigue score, MMPOWER-3; type: in vivo, human
Experimental: as §1, §2, §3
The PMMSA was performed during screening, baseline, and daily throughout the 24-week study period. Other efficacy endpoints were performed at screening, baseline, and at weeks 4, 12, and 24 of randomized treatment.
as §4, §5, §6

[7] = 40 mg/d SC, 24 weeks, listed as Elamipretide
[8] = AEs reported by ≥ 5% of participants in either group, n = 109, 40 mg/d SC, 24 weeks
[9] = safety population n = 109, 40 mg/d SC, 24 weeks

Q: Which “Solubility in water (description)” value [1] does the source give for elamipretide here?
A: water-soluble

Q: And the “Overall outcome on efficacy endpoints (6MWT, PMMSA TFS, secondary endpoints) versus placebo” value [2]?
A: did not improve outcomes in the 6MWT and PMMSA TFS; also recorded: did not meet either primary or secondary endpoints; also recorded: did not demonstrate statistically significant changes on the primary endpoints

Q: What about the “Covariate influence on systemic or absorption PK parameters (population PK model)” value ([3]; PK population 106 participants, NONMEM, systemic parameters scaled allometrically) of the same substance?
A: No covariates influenced the systemic or absorption parameters

Q: And the “Exposure-response: 6MWT change and fractional change at week 24 vs day 1 as a function of elamipretide steady state area under the curve” value ([3]; participants with an nDNA alteration, p = 0.0262 and p = 0.0345, respectively)?
A: increase; also recorded: statistically significant correlation

Q: And the “Difference between elamipretide and placebo in LS mean change from baseline in 6MWT distance at week 24” value ([4]; ITT population, 40 mg/d SC, 24 weeks, 95% CI −18.7 to 12.3, p = 0.69)?
A: −3.2 meters

Q: And the “Least squares mean (SE) of change from baseline in distance walked on 6MWT at week 24” value ([4]; ITT population, elamipretide 40 mg/d SC once daily, 24 weeks, MMRM, SEM)?
A: 14.1 (±5.7) meters

Q: And the “Difference between elamipretide and placebo in change from baseline in 6MWT distance at week 24, per-protocol analysis” value ([4]; PP population, 40 mg/d SC, 24 weeks, 95% CI −16.9 to 12.5, p = 0.77)?
A: −2.2 meters

Q: And the “LS mean (SE) of change from baseline in 6MWT distance at week 24, mtDNA alteration subgroup” value ([4]; participants with mtDNA alteration (ITT), elamipretide n = 74, 40 mg/d SC, 24 weeks, SEM)?
A: 14.0 (±6.1) meters

Q: And the “Between-group difference in change from baseline in 6MWT distance at week 24, mtDNA alteration subgroup” value ([4]; participants with mtDNA alteration, favoring placebo, 95% CI −28.1 to 6.1, p = 0.21)?
A: −11.0 meters

Q: And the “LS mean (SE) change from baseline in 6MWT distance at week 24, nDNA alteration subgroup” value ([4]; participants with nDNA alteration (post hoc analysis), elamipretide n = 29, 40 mg/d SC, 24 weeks, SEM)?
A: 25.5 (±8.0) meters

Q: And the “Between-group difference in change from baseline in 6MWT distance at week 24, nDNA alteration subgroup” value ([4]; participants with nDNA alteration (post hoc), favoring elamipretide, 95% CI 3.1–47.3, p = 0.03)?
A: 25.2 meters

Q: And the “AE with an outcome of death or hospitalization” value ([5]; 40 mg/d SC, 24 weeks)?
A: No participants

Q: And the “Severity (intensity) of most adverse events” value ([5]; 40 mg/d SC, 24 weeks)?
A: mild or moderate

Q: And the “Tolerability of subcutaneous elamipretide” value ([5]; 40 mg/d SC, 24 weeks)?
A: generally well tolerated

Q: And the “Severity (intensity) of most adverse events” value [5, 7]?
A: mild to moderate

Q: What about the “Tolerability of subcutaneous elamipretide” value [5, 7] of the same substance?
A: well-tolerated

Q: What about the Diarrhea [5, 8] of the same substance?
A: 3 (2.8) n (%)

Q: And the Dizziness [5, 8]?
A: 6 (5.5) n (%)

Q: And the Eosinophil count increased [5, 8]?
A: 7 (6.4) n (%)

Q: What about the Fall [5, 8] of the same substance?
A: 6 (5.5) n (%)

Q: And the Headache [5, 8]?
A: 8 (7.3) n (%)

Q: What about the Injection site bruising [5, 8] of the same substance?
A: 9 (8.3) n (%)

Q: What about the Injection site erythema [5, 8] of the same substance?
A: 94 (86.2) n (%)

Q: And the Injection site hematoma [5, 8]?
A: 0 n (%)

Q: What about the Injection site hemorrhage [5, 8] of the same substance?
A: 7 (6.4) n (%)

Q: And the Injection site induration [5, 8]?
A: 31 (28.4) n (%)

Q: What about the Injection site mass [5, 8] of the same substance?
A: 9 (8.3) n (%)

Q: What about the Injection site nodule [5, 8] of the same substance?
A: 11 (10.1) n (%)

Q: What about the Injection site pain [5, 8] of the same substance?
A: 43 (39.4) n (%)

Q: And the Injection site pruritus [5, 8]?
A: 82 (75.2) n (%)

Q: What about the Injection site swelling [5, 8] of the same substance?
A: 42 (38.5) n (%)

Q: What about the Injection site urticaria [5, 8] of the same substance?
A: 14 (12.8) n (%)

Q: And the Nasopharyngitis [5, 8]?
A: 8 (7.3) n (%)

Q: And the Nausea [5, 8]?
A: 5 (4.6) n (%)

Q: And the “Upper respiratory tract infection” value [5, 8]?
A: 7 (6.4) n (%)

Q: What about the “AEs reported as treatment-related AEs” value ([5]; elamipretide group, 40 mg/d SC, 24 weeks) of the same substance?
A: 97.2%

Q: And the “Percentage of participants with serious adverse events (SAEs)” value ([5]; n = 5/109, not deemed to be treatment related)?
A: 4.6%

Q: What about the “Incidence of AEs leading to discontinuation” value ([5]; n = 8/109) of the same substance?
A: 7.3%

Q: What about the “Percentage of participants reporting AEs during the treatment period” value ([5]; n = 107/109, 40 mg/d SC, 24 weeks) of the same substance?
A: 98.2%

Q: And the “Any AE” value [5, 9]?
A: 107 (98.2) n (%)

Q: What about the “Any AE leading to treatment discontinuation” value [5, 9] of the same substance?
A: 8 (7.3) n (%)

Q: And the “Any AE leading to treatment interruption” value [5, 9]?
A: 13 (11.9) n (%)

Q: What about the “Any SAE” value [5, 9] of the same substance?
A: 5 (4.6) n (%)

Q: And the “Any treatment-related AE” value [5, 9]?
A: 106 (97.2) n (%)

Q: And the “Any treatment-related SAE” value [5, 9]?
A: 0 n (%)

Q: What about the Death [5, 9] of the same substance?
A: 0 n (%)

Q: And the “Difference between elamipretide and placebo in LS mean change from baseline to week 24 on PMMSA total fatigue score” value ([6]; ITT population, 40 mg/d SC, 24 weeks, 95% CI −0.69 to 0.54, p = 0.81)?
A: −0.07

Q: What about the “LS mean (SE) of change from baseline to week 24 on the PMMSA total fatigue score” value ([6]; ITT population, 40 mg/d SC, 24 weeks, MMRM, SEM) of the same substance?
A: −1.13 (±0.22)

Q: What about the “Difference between elamipretide and placebo in change from baseline to week 24 on PMMSA total fatigue score, per-protocol analysis” value ([6]; PP population, 40 mg/d SC, 24 weeks, 95% CI −0.54 to 0.72, p = 0.78) of the same substance?
A: 0.09

Q: And the “LS mean (SE) of change from baseline at week 24 on PMMSA TFS, mtDNA alteration subgroup” value ([6]; participants with mtDNA alteration, 40 mg/d SC, 24 weeks, SEM)?
A: −1.3 (±0.2424)

Q: And the “Between-group difference in change from baseline at week 24 on PMMSA TFS, mtDNA alteration subgroup” value ([6]; participants with mtDNA alteration, 95% CI −0.9 to 0.5, p = 0.55)?
A: −0.21

Q: And the “LS mean (SE) of change from baseline at week 24 on PMMSA TFS, nDNA alteration subgroup” value ([6]; participants with nDNA alteration (post hoc analysis), 40 mg/d SC, 24 weeks, SEM)?
A: −0.45 (±0.25)

Q: What about the “Between-group difference in change from baseline at week 24 on PMMSA TFS, nDNA alteration subgroup” value ([6]; participants with nDNA alteration (post hoc), p = 0.93) of the same substance?
A: 0.03
